Measured values published in patent US5908868A, “Retinol derivatives useful for enhancing immune response” (priority 1995, dated 1999).
Entries after “also recorded” stand apart in the source; their conditions may differ.

How the values were obtained:
thymocytes [1] = assay: Growth-stimulating effect of retinol on anti-CD3 activated thymocytes in the presence of interleukins; assay type: cell-based, BALB/c mouse; conditions: for substitution for retinol by lymphokines/cytokines: anti-CD3-activated thymocytes; for substitution for retinol by lymphokines/cytokines / CPM anti-CD3, no Retinol: no retinol; for CPM anti-CD3, no Retinol: 3 days
Description: Cells were cultured in serum-free medium, referred to as ITLB, containing RPMI 1640 supplemented with 8×10^-7 M insulin (5 μg/ml), 7×10^-8 M transferrin (5 μg/ml), 2×10^-6 M linoleic acid, 2×10^-6 M delipidated BSA (0.12 mg/ml), 2 mM L-glutamine, 1 mM sodium pyruvate and antibiotics. They were seeded into 96-well flat-bottom plates at varying cellular densities in a final volume of 100 μl. In control experiments, cells were cultured in medium containing 10% FCS or 3% human serum and 5×10^-5 M 2 ME. T cells and thymocytes were activated with immobilized, purified anti-mab CD3e or by the addition of Con A in the presence or absence of different concentrations of retinoids. Unless indicated otherwise, retinoids were replenished every 12 hours to maintain a reasonably constant concentration of these labile compounds in culture. […] Cultures were carried out in duplicate. Plates were incubated at 37° C. in a humidified 5% CO2 atmosphere. Cellular proliferation was determined by [^3 H] thymidine uptake (0.5 uCi/well; New England Nuclear, Boston, Mass.) after the incubation times indicated for each experiment with a 4 hour labeling pulse. Cells were harvested onto glass filter and [^3 H]TdR incorporation was determined by liquid scintillation counting. The data presented are the means of duplicate or six replicate cultures. The restriction to duplicate measurements was necessary to conserve scarce 14HRR. […] Each experiment was repeated at least twice.
Proliferation of activated thymocytes in response to interleukins in presence and absence of retinol. Purified thymocytes (5×10^5 cells/well) were activated with immobilized anti-CD3 antibody in serum-free medium in the presence or absence of interleukins and retinol (3×10^-6 M). Proliferation was assayed after three days by tritiated thymidine incorporation.

thymocytes [2] = assay: as above; assay type: cell-based, BALB/c mouse; conditions: 3 days
T cells = assay: T cell activation/proliferation; assay type: cell-based, murine; conditions: for substitution for retinol in T cell activation: with mitogen/anti-CD3; for activity in T cell activation relative to natural 13,14-DHR: synthetic isomers
Description: They were seeded into 96-well flat-bottom plates at varying cellular densities in a final volume of 100 μl. In control experiments, cells were cultured in medium containing 10% FCS or 3% human serum and 5×10^-5 M 2 ME. […] Cultures were carried out in duplicate. Plates were incubated at 37° C. in a humidified 5% CO2 atmosphere. Cellular proliferation was determined by [^3 H] thymidine uptake (0.5 uCi/well; New England Nuclear, Boston, Mass.) after the incubation times indicated for each experiment with a 4 hour labeling pulse. Cells were harvested onto glass filter and [^3 H]TdR incorporation was determined by liquid scintillation counting. The data presented are the means of duplicate or six replicate cultures. The restriction to duplicate measurements was necessary to conserve scarce 14HRR. […] Each experiment was repeated at least twice.

thymocytes [3] = assay: Proliferation of anti-CD3e activated thymocytes in serum-free medium; assay type: cell-based, BALB/c mouse
Description: FIG. 14A: Purified BALB/c thymocytes were activated with immobilized anti-CD3e antibody and cultivated for four days in ITLB medium with or without retinol (3×10^-6 M), 14HRR (6×10^-7 M) (fresh 14HRR was added every 12 hours), human serum (3%) or FCS (10%) at the cellular densities shown. Proliferation was assayed by tritiated thymidine incorporation into cellular DNA. The SDs were below 20%.
FIG. 14B: BALB/c thymocytes (10^6 /ml) were added to microtiter plates coated with titrated amounts of anti-CD3e antibody with […] retinol or without, as indicated. Proliferation was measured in hexaduplicate wells on day 3 by ^3 H thymidine incorporation assay.
FIG. 14C: BALB/c thymocytes (3×10^6 /ml) were activated with anti-CD3e mAb as FIG. 1A. The total number of viable cells was determined by counting trypan blue-excluding cells, and those of blast cells by counting viable large cells in six replicate wells. Because of the relatively low cell density required in the culture (see FIG. 14A), the numbers reported for blast cells are best estimates.
Purified thymocytes (5×10^5 cells/well) were stimulated by TCR crosslinking with immobilized anti-CD3e antibody (FIG. 15A) or 0.4 μg/ml Con A (FIG. 15B) in serum-free ITLB medium. The indicated amounts of retinoids were added either once at the beginning of the experiment (marked as "1x") or every 12 hours thereafter (marked as "6x"). DNA synthesis was measured after 72 hours by tritiated thymidine uptake as described.
Purified thymocytes (10^5 cells/well) were activated with anti-CD3 antibody in ITLB medium with or without retinol (3×10^-6 M), 14HRR (6×10^-7, added every 12 hours or human serum (3%)). DNA synthesis was measured daily by a 4 hour pulse of tritiated thymidine. SDs were ≤12%.
Thymocytes (5×10^4 /well) were activated by immobilized anti-CD3 mAb in medium ITLB. Retinol (2×10^-6 M) was added at initiation of culture, or delayed by 12 hours and 24 hours, respectively, or omitted altogether. ^3 H thymidine pulses of 4 hours were used to measure DNA synthesis of hexaduplicate wells. (SDs were 20% or less.)
Thymuses of 3 to 6-week-old BALB/c mice were teased in serum-free RPMI medium supplemented with 1% BSA, 10^-6 M linoleic acid and antibiotics. Depletion of accessory cells was achieved by two cycles of complement-dependent lysis with a mixture of anti-IA^d (5 μg/ml) and anti-Itd (1:500 diluted ascites fluid). Briefly, cells were incubated on ice for 30 minutes with Ia antibodies, spun down, resuspended in 1:40 diluted rabbit complement, and incubated at 37° C. for 45 minutes. Incubations and two subsequent washes were carried out with RPMI medium containing 1% BSA. Cell viability was evaluated by trypan blue dye exclusion. To determine the extent of depletion of accessory cells, samples were stained with FITC-conjugated anti-Fc receptor antibody and analyzed by flow cytometry on a FACScan instrument (Becton Dickinson). No FcR-bearing cells were detected by this procedure.
Cells were cultured in serum-free medium, referred to as ITLB, containing RPMI 1640 supplemented with 8×10^-7 M insulin (5 μg/ml), 7×10^-8 M transferrin (5 μg/ml), 2×10^-6 M linoleic acid, 2×10^-6 M delipidated BSA (0.12 mg/ml), 2 mM L-glutamine, 1 mM sodium pyruvate and antibiotics. They were seeded into 96-well flat-bottom plates at varying cellular densities in a final volume of 100 μl. In control experiments, cells were cultured in medium containing 10% FCS or 3% human serum and 5×10^-5 M 2 ME. T cells and thymocytes were activated with immobilized, purified anti-mab CD3e or by the addition of Con A in the presence or absence of different concentrations of retinoids. Unless indicated otherwise, retinoids were replenished every 12 hours to maintain a reasonably constant concentration of these labile compounds in culture. […]

B lymphocytes [4] = assay: B cell growth/survival; assay type: cell-based; conditions: synthetic isomers
B lymphocytes [5] = conditions: previous analyses with B lymphocytes (33); cited from earlier work
[6] = tested on: lymphoblastoid cells (LCL); conditions: serum-free medium; cited from earlier work

Molecule: TNF-alpha
- substitution for retinol by lymphokines/cytokines (thymocytes [1]): none
- substitution for retinol by lymphokines/cytokines (thymocytes [1]; listed as TNF-α): does not
- CPM anti-CD3, no Retinol (thymocytes [1]): 464 ± 95 CPM
- CPM anti-CD3, 10^-6 M Retinol (thymocytes [2]): 122,905 ± 11,577 CPM
- substitution for retinol in T cell activation (T cells): cannot be satisfied

Molecule: CC1=C(/C=C/C(C)=C/C=C/C(C)=C\CO)C(C)(C)CCC1 [13-cis-retinol]
- effectiveness relative to all-trans retinol (thymocytes [3]): equally effective as all-trans retinol
- substitution for retinol in T cell activation (T cells): can substitute for retinol

Molecule: CC1=C(/C=C/C(C)=C/C=C/[C@@](C)(O)[C@H](O)CO)C(C)(C)CCC1 [all-trans (13R, 14R)-DHR]
- activity in supporting B cell growth relative to natural 13,14-DHR (B lymphocytes [4]): same activity
- activity in T cell activation relative to natural 13,14-DHR (T cells): same activity

Molecule: CC1=C(/C=C/C(C)=C/C=C/C(C)=C/C=O)C(C)(C)CCC1 [all-trans retinal]
- effectiveness relative to all-trans retinol (thymocytes [3]): equally effective as all-trans retinol
- concentration at which activity was demonstrated (B lymphocytes [5]): 200 nM
- substitution for retinol in T cell activation (T cells): can substitute for retinol
- support of growth of LCL [6]: support the growth of LCL

Molecule: CC1=C(/C=C/C(C)=C/C=C/[C@](C)(O)[C@H](O)CO)C(C)(C)CCC1 [all-trans (13S, 14R)-DHR]
- activity in supporting B cell growth relative to natural 13,14-DHR (B lymphocytes [4]): same activity
- activity in T cell activation relative to natural 13,14-DHR (T cells): same activity

Molecule: CC1=C(/C=C/C(C)=C\C=C\[C@](C)(O)[C@H](O)CO)C(C)(C)CCC1 [9-cis-(13S, 14R)-DHR]
- activity in supporting B cell growth relative to natural 13,14-DHR (B lymphocytes [4]): same activity
- activity in T cell activation relative to natural 13,14-DHR (T cells): same activity

Molecule: CC1=C(/C=C/C(C)=C\C=C\[C@@](C)(O)[C@H](O)CO)C(C)(C)CCC1 [9-cis-(13R, 14R)-DHR]
- activity in supporting B cell growth relative to natural 13,14-DHR (B lymphocytes [4]): same activity
- activity in T cell activation relative to natural 13,14-DHR (T cells): same activity

Molecule: IL-6: hrIL-6 purchased from Boehringer Mannheim
- substitution for retinol by lymphokines/cytokines (thymocytes [1]): None and none
- CPM anti-CD3, no Retinol (thymocytes [1]): 1,005 ± 815 CPM
- CPM anti-CD3, 10^-6 M Retinol (thymocytes [2]): 130,590 ± 25,803 CPM

B1: IFN-gamma: mouse recombinant IFN-gamma (protein, UniProt P01580 23-155, looked up)
Interferon gamma: HGTVIESLESLNNYFNSSGIDVEEKSLFLDIWRNWQKDGDMKILQSQIISFYLRLFEVLKDNQAISNNISVIESHLITTFFSNSKAKKDAFMSIAKFEVNNPQVQRQAFNELIRVVHQLLPESSLRKRKRSRC
- substitution for retinol by lymphokines/cytokines (thymocytes [1]): can circumvent the retinol requirement and initiate durable proliferation in the absence of retinol or 14HRR
- substitution for retinol by lymphokines/cytokines (thymocytes [1]; listed as interferon-gamma): can sustain thymocyte proliferation in the absence of retinol; also recorded: quite efficient in anti-CD3-mediated activation in the absence of retinol
- CPM anti-CD3, no Retinol (thymocytes [1]): 81,876 ± 11,866 CPM
- synergy with retinol (thymocytes [1]): strong additive effects
- synergy with retinol (thymocytes [1]; listed as Interferon-gamma): clear additive effect with retinol
- CPM anti-CD3, 10^-6 M Retinol (thymocytes [2]): 220,359 ± 27,726 CPM
- substitution for retinol in T cell activation (T cells): can substitute for retinol

B2: IL-1: Human recombinant IL-1-α (protein, UniProt P01583 113-271, looked up)
Interleukin-1 alpha: SAPFSFLSNVKYNFMRIIKYEFILNDALNQSIIRANDQYLTAAALHNLDEAVKFDMGAYKSSKDDAKITVILRISKTQLYVTAQDEDQPVLLKEMPEIPKTITGSETNLLFFWETHGTKNYFTSVAHPNLFIATKQDYWVCLAGGPPSITDFQILENQA
- substitution for retinol by lymphokines/cytokines (thymocytes [1]): None and none
- CPM anti-CD3, no Retinol (thymocytes [1]): 959 ± 30 CPM
- CPM anti-CD3, 10^-6 M Retinol (thymocytes [2]): 118,924 ± 3,051 CPM

B3: IL-4: murine rIL-4 (protein, UniProt P07750 21-140, looked up)
Interleukin-4: HIHGCDKNHLREIIGILNEVTGEGTPCTEMDVPNVLTATKNTTESELVCRASKVLRIFYLKHGKTPCLKKNSSVLMELQRLFRAFRCLDSSISCTMNESKSTSLKDFLESLKSIMQMDYS
- substitution for retinol by lymphokines/cytokines (thymocytes [1]): None and none
- CPM anti-CD3, no Retinol (thymocytes [1]): 991 ± 105 CPM
- CPM anti-CD3, 10^-6 M Retinol (thymocytes [2]): 115,849 ± 20,630 CPM
